According to article PMC12030627, “Radioiodinated Bicyclic RGD Peptide Derivatives for Enhanced Tumor Accumulation” (Pharmaceuticals, 2025):
Read-outs that look alike come from different tables or passages of the source. Starred links: 1 amine or outer side, 2 acyl side, 3 side chain; linkers in the order of their positions; H or OH if unused. Positions of bridges follow the written chain, without caps; N, C: chain ends. Non-standard residues stand in square brackets, D forms with d. Residues, ends and D or L forms follow the SMILES beside them. *: point of attachment. TBMB = c1c(C[*:1])cc(C[*:3])cc1C[*:2]; Palmitoyl = CCCCCCCCCCCCCCCC(=O)*; Benzoyl(3-I) = O=C(c1cccc(I)c1)*; 4Abz = Nc1ccc(C(=O)O)cc1

Key:
[1] = Octanol–water distribution coefficient (log D); assay type: physicochemical; details: shake-flask 1-octanol/PBS(–) pH 7.4, 1.0 mL each (1:1), 40 kBq, vortexed 2 min, centrifuged 5000 rpm 5 min, radioactivity by γ-counter, mean of n = 4
Protocol: For log D determination, [^125I]bcRGD, [^125I]bcRGDpal, [^125I]bcRGDiba, or [^125I]bcRGDdimer (40 kBq) was dissolved in 1.0 mL PBS(–) (pH 7.4) and mixed with 1.0 mL 1-octanol (1:1, v/v). The mixture was vortexed for 2 min and centrifuged at 5000 rpm for 5 min. Radioactivity in 0.5 mL of each phase was measured using a γ-counter, and log D values were calculated based on the radioactivity distribution (n = 4).

[2] = Albumin binding, size-exclusion spin column elution after incubation with mouse plasma; assay type: in vitro ADME; details: 37 kBq in 50 μL PBS(–) incubated 37 °C 10 min with 200 μL mouse plasma (male ddY); Sephadex G-50 Fine spin column, 2000 rpm 2 min; γ-counter; eluted/added radioactivity × 100
Protocol: To assess albumin binding, mouse plasma was obtained by centrifugation of whole blood from male ddY mice (9 weeks old). [^125I]bcRGD, [^125I]bcRGDpal, [^125I]bcRGDiba, or [^125I]bcRGDdimer (37 kBq) in 50 μL PBS(–) was incubated at 37 °C for 10 min with 200 μL of PBS(–), mouse plasma, or human serum albumin (HSA, 45 mg/mL in PBS(–); Wako Pure Chemical Industries, Osaka, Japan). The mixtures were applied to gel filtration spin columns (Sephadex G-50 Fine; Cytiva, Tokyo, Japan), centrifuged (2000 rpm, 2 min), and radioactivity in the eluted fraction was measured with a γ-counter. The high molecular weight fraction was calculated as the elution ratio = (radioactivity in elution)/(added radioactivity) × 100 (%).

[3] = Biodistribution in U-87 MG tumor-bearing mice; assay type: in vivo, BALB/c nu-nu mice; details: mouse, total radioactivity, 2 h post-administration, tumor-bearing mice, comparator value, no method or n printed for this probe
Protocol: Animal experiments were performed in compliance with institutional animal care regulations, with the study protocol approved by the Experimental Animal Committee of Osaka Medical and Pharmaceutical University (Approval Numbers: 21–76, 22–76, and 23–76). Four-week-old male BALB/c nu-nu mice (Japan SLC, Shizuoka, Japan) were housed under a 12 h light/12 h dark cycle with free access to food and water. Tumor-bearing mice were established by suspending U-87 MG cells (2 × 10^6 cells/mouse) in PBS(–) and subcutaneously injecting 100 μL of the suspension into the right hind leg. For co-implantation models, A549 cells (2 × 10^6 cells/mouse) were suspended in PBS(–) and inoculated (100 μL) into the left hind leg of the same mice already inoculated with U-87 MG cells. Mice with tumor size approximately 10 mm in diameter, 4–5 weeks after inoculation, were used for biodistribution studies. Animals in which either tumor was not viable were excluded from the experiment.
U-87 MG-bearing mice (n = 42, 8–9 weeks old; 22–27 g) were randomly assigned into groups and administered [^125I]bcRGDpal or [^125I]bcRGDiba via intravenous injection (37 kBq in 100 μL of PBS containing 0.1% Tween 80 (PBS-T80)). At 5 min, 30 min, 1 h, 2 h, 6 h, 12 h, or 24 h post-injection, the mice were euthanized (n = 3 per time point). The heart, kidneys, liver, brain, pancreas, spleen, lung, small intestine, large intestine, muscle, skin, stomach, bone, and tumors were excised. Each organ’s weight and radioactivity were measured by a NaI well-type scintillation counter, and the % ID/g was calculated. To investigate the correlation between integrin expression and radioactivity accumulation, biodistribution at 2 h after administration of [^125I]bcRGDpal or [^125I]bcRGDiba was assessed in A549 and U-87 MG co-implantation mice (n = 5) using the same procedure. Additionally, co-implantation mice were injected with [^125I]bcRGDdimer (37 kBq/100 μL PBS-T80) and euthanized at 30 min, 2 h, and 4 h post-injection (n = 4 per time point), and % ID/g values were calculated as described above. The minimum sample size needed for the biodistribution study in U-87 MG-bearing mice was calculated using G Power software version 3.1.9.7. The calculation was based on a two-tailed test, with an effect size of 3.9, a significance level (α) of 0.05, and a statistical power (1 − β) of 0.8. […] The minimum required sample size for the biodistribution study in A549 and U-87 MG co-implantation mice was also calculated to be four animals per group (effect size = 2.5, α = 0.05, 1 − β = 0.8). To guarantee objective results, the experiment was carried out in a blinded manner. Specifically, drug administration and radioactivity measurements were conducted by different investigators to eliminate potential bias.

integrin αVβ3 / αVβ5 = details: cited from earlier work
From the text: A radiolabeled probe based on this bicyclic peptide, [^125I]bcRGD, was synthesized and shown to selectively accumulate in αVβ3-expressing cancer cells and xenograft models in mice. However, like many l ...

human serum albumin = target: T1, human serum albumin (human, UniProt P02768 25-609); experiment: SEC; [^125I]-peptide (37 kBq in 50 μL PBS(-)) with 200 μL HSA (45 mg/mL in PBS(-)), 37 °C, 10 min; Sephadex G-50 Fine gel filtration spin column, 2000 rpm, 2 min; radioactivity in the eluted high molecular weight fraction as % of that added; details: both partners purified
T1 construct: human serum albumin, 45 mg/mL in PBS(-); also called HSA; source: bought: Wako Pure Chemical Industries

| Molecule | αVβ3/αVβ5 selectivity ratio (ratio of corresponding IC50 values) (integrin αVβ3 / αVβ5) | elution ratio (high molecular weight fraction) with HSA (human serum albumin) | other results |
| --- | --- | --- | --- |
| CC(=O)N[C@@H](CCCCNC(=O)c1cccc(I)c1)C(=O)N1CCC[C@H]1C(=O)N1CCC[C@H]1C(=O)N1CCC[C@H]1C(=O)N[C@@H](CO)C(=O)NCC(=O)Nc1ccc(C(=O)N[C@@H](CO)C(=O)NCC(=O)N[C@H]2CSCc3cc4cc(c3)CSC[C@@H](NC(=O)[C@H](CCC(N)=O)NC(=O)[C@@H]3CCCN3C(=O)[C@H](Cc3c[nH]cn3)NC2=O)C(=O)N[C@@H](CCCNC(=N)N)C(=O)NCC(=O)N[C@@H](CC(=O)O)C(=O)N[C@@H](C(N)=O)CSC4)cc1 [[^125I]bcRGD, reference compound] (Ac-K(Benzoyl(3-I))PPPSG[4Abz]SGCHPQ[dC]RGD[dC]-NH2; linker 10-14-18 via TBMB) |  |  | logD [1]: -2.02; Elution rate from size-exclusion resin (high molecular weight fraction), mouse plasma [2]: 2%; tissue uptake at 2 h ([3]; U-87 MG tumor, read-out: Tumor-accumulated radioactivity (U-87 MG)): 0.7 %ID/g; tissue uptake at 2 h ([3]; blood, read-out: Blood radioactivity level): 0.3 %ID/g |
| cyclo-(RGDfK) | 0.2 |  |  |
| cilengitide | 4.7 |  |  |
| Palmitoyl-K((125I)3‑iodobenzoyl)PPPSG[4Abz]SGCHPQ[dC]RGD[dC]-NH2 (linker 10-14-18 via TBMB (inferred)) [[^125I]bcRGDpal] |  | 80% |  |
| {4‑(p-iodophenyl)butyryl}-K((125I)3‑iodobenzoyl)PPPSG[4Abz]SGCHPQ[dC]RGD[dC]-NH2 (linker 10-14-18 via TBMB (inferred)) [[^125I]bcRGDiba] |  | 60% |  |
